Measurements from patent US10392368B2, “Pyrazolo and triazolo bicyclic compounds as JAK kinase inhibitors” (THERAVANCE BIOPHARMA R&D IP, LLC, priority 2017, dated 2019).

What was measured:
JAK3 = target: T1, JAK3 (Homo sapiens, UniProt P52333); assay: Biochemical JAK3 kinase assay (LanthaScreen); design: GST; purchased Life Technologies; conditions: for JAK3 (pKi)-JAK1 (pKi): selectivity: difference of pKi JAK3 and pKi JAK1; for Ki: read-out: JAK 3 (pKi) (converted)
T1 sequence (P52333 1-1124): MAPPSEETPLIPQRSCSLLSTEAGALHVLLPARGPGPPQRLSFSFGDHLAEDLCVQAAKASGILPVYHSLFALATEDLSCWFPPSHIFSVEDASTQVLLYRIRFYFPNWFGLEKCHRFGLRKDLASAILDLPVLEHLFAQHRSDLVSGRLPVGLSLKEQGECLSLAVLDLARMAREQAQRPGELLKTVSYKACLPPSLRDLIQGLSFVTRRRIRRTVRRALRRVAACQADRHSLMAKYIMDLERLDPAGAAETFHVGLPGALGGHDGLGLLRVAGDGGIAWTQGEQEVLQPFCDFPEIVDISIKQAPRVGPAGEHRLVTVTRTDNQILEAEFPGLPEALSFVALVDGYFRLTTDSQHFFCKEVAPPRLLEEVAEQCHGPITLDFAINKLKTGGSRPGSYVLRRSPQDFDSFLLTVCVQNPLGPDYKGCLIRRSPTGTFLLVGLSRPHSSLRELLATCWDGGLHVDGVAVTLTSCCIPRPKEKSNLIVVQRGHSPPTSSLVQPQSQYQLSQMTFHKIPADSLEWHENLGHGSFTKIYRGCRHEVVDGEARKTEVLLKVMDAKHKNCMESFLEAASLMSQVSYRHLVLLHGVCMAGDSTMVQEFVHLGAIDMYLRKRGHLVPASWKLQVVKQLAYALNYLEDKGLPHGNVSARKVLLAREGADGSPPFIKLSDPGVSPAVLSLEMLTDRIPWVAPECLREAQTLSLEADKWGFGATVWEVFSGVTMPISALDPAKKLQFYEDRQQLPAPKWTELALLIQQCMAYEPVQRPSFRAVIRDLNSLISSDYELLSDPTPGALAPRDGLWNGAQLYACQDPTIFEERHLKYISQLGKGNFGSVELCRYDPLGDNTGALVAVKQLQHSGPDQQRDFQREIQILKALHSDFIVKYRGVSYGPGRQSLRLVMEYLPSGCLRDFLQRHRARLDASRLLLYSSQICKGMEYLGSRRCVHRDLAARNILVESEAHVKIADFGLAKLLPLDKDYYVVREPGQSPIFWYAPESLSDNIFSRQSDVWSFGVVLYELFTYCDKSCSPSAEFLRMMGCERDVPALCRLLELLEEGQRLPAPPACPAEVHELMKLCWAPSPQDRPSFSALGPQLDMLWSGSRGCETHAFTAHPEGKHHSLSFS
Method: (§1) A panel of four LanthaScreen JAK biochemical assays (JAK1, 2, 3 and Tyk2) were carried in a common kinase reaction buffer (50 mM HEPES, pH 7.5, 0.01% Brij-35, 10 mM MgCl2, and 1 mM EGTA). Recombinant GST-tagged JAK enzymes and a GFP-tagged STAT1 peptide substrate were obtained from Life Technologies.
(§2) Serially or discretely diluted compounds were pre-incubated with each of the four JAK enzymes and the substrate in white 384-well microplates (Corning) at ambient temperature for 1 h. ATP was subsequently added to initiate the kinase reactions in 10 μL total volume, with 1% DMSO. […] Kinase reactions were allowed to proceed for 1 hour at ambient temperature before a 10 μL preparation of EDTA (10 mM final concentration) and Tb-anti-pSTAT1 (pTyr701) antibody (Life Technologies, 2 nM final concentration) in TR-FRET dilution buffer (Life Technologies) was added. The plates were allowed to incubate at ambient temperature for 1 h before being read on the EnVision reader (Perkin Elmer). Emission ratio signals (520 nm/495 nm) were recorded and utilized to calculate the percent inhibition values based on DMSO and background controls.
(§3) For dose-response analysis, percent inhibition data were plotted vs. compound concentrations, and IC50 values were determined from a 4-parameter robust fit model with the Prism software (GraphPad Software). Results were expressed as pIC50 (negative logarithm of IC50) and subsequently converted to pKi (negative logarithm of dissociation constant, Ki) using the Cheng-Prusoff equation.

JAK1 = target: T2, JAK1 (Homo sapiens, UniProt P23458); assay: Biochemical JAK1 kinase assay (LanthaScreen); conditions: for Ki: read-out: JAK 1 (pKi) (converted)
T2 construct: GST; purchased Life Technologies
T2 sequence (P23458 whole entry): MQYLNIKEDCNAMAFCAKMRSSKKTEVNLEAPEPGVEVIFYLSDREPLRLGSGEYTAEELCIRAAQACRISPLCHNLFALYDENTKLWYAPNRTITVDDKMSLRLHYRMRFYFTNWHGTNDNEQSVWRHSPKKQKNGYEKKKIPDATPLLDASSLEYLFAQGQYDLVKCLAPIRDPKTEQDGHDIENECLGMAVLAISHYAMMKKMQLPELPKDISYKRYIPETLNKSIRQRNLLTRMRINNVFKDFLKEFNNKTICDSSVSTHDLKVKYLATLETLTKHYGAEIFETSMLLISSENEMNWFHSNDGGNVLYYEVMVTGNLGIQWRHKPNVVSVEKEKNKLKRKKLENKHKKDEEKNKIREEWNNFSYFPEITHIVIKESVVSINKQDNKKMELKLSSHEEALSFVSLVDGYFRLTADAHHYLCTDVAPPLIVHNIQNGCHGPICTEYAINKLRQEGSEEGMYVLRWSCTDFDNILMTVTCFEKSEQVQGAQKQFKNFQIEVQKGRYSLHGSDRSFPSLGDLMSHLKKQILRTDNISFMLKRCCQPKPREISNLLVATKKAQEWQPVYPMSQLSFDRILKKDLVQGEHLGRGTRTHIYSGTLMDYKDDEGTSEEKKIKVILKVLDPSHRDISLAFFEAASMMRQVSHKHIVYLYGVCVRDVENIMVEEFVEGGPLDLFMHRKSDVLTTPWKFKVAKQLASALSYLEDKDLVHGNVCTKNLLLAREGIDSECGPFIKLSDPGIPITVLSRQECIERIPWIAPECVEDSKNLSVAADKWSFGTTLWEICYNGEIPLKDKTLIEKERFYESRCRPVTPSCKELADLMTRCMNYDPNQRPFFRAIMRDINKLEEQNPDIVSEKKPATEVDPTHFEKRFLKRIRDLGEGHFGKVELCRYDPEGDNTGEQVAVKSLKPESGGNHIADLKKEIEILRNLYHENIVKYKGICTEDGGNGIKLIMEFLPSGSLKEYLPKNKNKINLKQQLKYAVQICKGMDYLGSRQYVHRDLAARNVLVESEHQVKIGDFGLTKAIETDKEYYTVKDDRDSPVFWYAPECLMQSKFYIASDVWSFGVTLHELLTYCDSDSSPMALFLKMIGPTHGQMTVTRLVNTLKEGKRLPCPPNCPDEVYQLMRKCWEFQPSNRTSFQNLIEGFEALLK
Method: as §1, §2, §3

[1] = test system: IL-2 stimulated pSTAT5 in Tall-1 T cells; assay: Cellular JAK3 potency assay: inhibition of IL-2 stimulated pSTAT5 in Tall-1 T cells; type: cell-based, human; conditions: for Tall-1 (pIC50): IL-2 stimulated pSTAT5 in Tall-1 T cells; for IC50: Homo sapiens, TALL-1, IL-2 stimulated pSTAT5 in Tall-1 T cells, read-out: Tall-1 (pIC50) (converted)
Method: The potency of test compounds for inhibition of interleukin-2 (IL-2) stimulated STAT5 phosphorylation was measured in the Tall-1 human T cell line (DSMZ) using AlphaLisa. Because IL-2 signals through JAK3, this assay provides a measure of JAK3 cellular potency.
Compounds were serially diluted in DMSO and dispensed acoustically to empty wells. Assay media (phenol red-free DMEM (Life Technologies) supplemented with 10% FBS (ATCC)) was dispensed (4 μL/well) and plates shaken at 900 rpm for 10 mins. Cells were seeded at 45,000 cells/well in assay media (4 μL/well), and incubated at 37° C., 5% CO2 for 1 hour, followed by the addition of IL-2 (R&D Systems; final concentration 300 ng/ml) in pre-warmed assay media (4 μL) for 30 minutes. After cytokine stimulation, cells were lysed with 6 ul of 3× AlphaLisa Lysis Buffer (PerkinElmer) containing 1× PhosStop and Complete tablets (Roche). The lysate was shaken at 900 rpm for 10 minutes at room temperature (RT). Phosphorylated STAT5 was measured via the pSTAT5 AlphaLisa kit (PerkinElmer). Freshly prepared acceptor bead mixture was dispensed onto lysate (5 μL) under green filtered <100 lux light. Plates were shaken at 900 rpm for 2 mins, briefly spun down, and incubated for 2 hrs at RT in the dark. Donor beads were dispensed (5 μL) under green filtered <100 lux light. Plates were shaken at 900 rpm for 2 minutes, briefly spun down, and incubated overnight at RT in the dark.
To determine the inhibitory potency of test compounds in response to IL-2, the average emission intensity of beads bound to pSTAT5 was measured in a human T cell line. IC50 values were determined from analysis of the inhibition curves of signal intensity versus compound concentration. Data are expressed as pIC50 (negative decadic logarithm IC50) values (mean±standard deviation).

Structure (SMILES)	JAK 3 (pKi) (JAK3)	JAK3 (pKi)-JAK1 (pKi) (JAK3)	JAK 1 (pKi) (JAK1)	Tall-1 (pIC50) [1]	Ki (JAK3) [nM]	Ki (JAK1) [nM]	IC50 [1] [nM]
C=CC(=O)N1CC(CC)(COc2cc(-c3ccc(O)c(Cl)c3)cc3[nH]ncc23)C1 [Compound 3-16]	A (a pKi value≥10 (Ki≤0.1 nM))	A (a value of 3 or above)	E (a pKi value of 7 or below (Ki of 100 nM or above))	B (a pIC50 value between 6.7 (included) and 7.5 (IC50 between 200 nM and 32 nM))	–	–	–
C=CC(=O)N1CC(CC)(COc2cc(-c3ccc(O)c(F)c3)cc3[nH]ncc23)C1 [Compound 3-18]	A (a pKi value≥10 (Ki≤0.1 nM))	A (a value of 3 or above)	E (a pKi value of 7 or below (Ki of 100 nM or above))	B (a pIC50 value between 6.7 (included) and 7.5 (IC50 between 200 nM and 32 nM))	–	–	–
C=CC(=O)N1CC(C(C)(C)Oc2cc(-c3ccc(O)cc3)cc3[nH]ncc23)C1 [Compound 3-25]	C (a pKi value between 8 and 9 (Ki between 10 nM and 1 nM))	B (a value of 2.3 to 3)	E (a pKi value of 7 or below (Ki of 100 nM or above))	B (a pIC50 value between 6.7 (included) and 7.5 (IC50 between 200 nM and 32 nM))	–	–	–
C=CC(=O)N1CC(C(C)(C)Oc2cc(-c3ccc(O)c(Cl)c3)cc3[nH]ncc23)C1 [Compound 3-26]	B (a pKi value between 9 and 10 (Ki between 1 nM and 0.1 nM))	A (a value of 3 or above)	E (a pKi value of 7 or below (Ki of 100 nM or above))	B (a pIC50 value between 6.7 (included) and 7.5 (IC50 between 200 nM and 32 nM))	–	–	–
C=CC(=O)N1CC(C(C)(C)Oc2cc(-c3ccc(O)c(F)c3)cc3[nH]ncc23)C1 [Compound 3-28]	A (a pKi value≥10 (Ki≤0.1 nM))	A (a value of 3 or above)	E (a pKi value of 7 or below (Ki of 100 nM or above))	A (a pIC50 value≥7.5 (IC50≤32 nM))	–	–	–
C=CC(=O)N1CC(COc2nc(-c3ccc(O)cc3)cc3[nH]ncc23)C1 [Compound 3-29]	B (a pKi value between 9 and 10 (Ki between 1 nM and 0.1 nM))	A (a value of 3 or above)	E (a pKi value of 7 or below (Ki of 100 nM or above))	A (a pIC50 value≥7.5 (IC50≤32 nM))	–	–	–
C=CC(=O)N1CC(COc2nc(-c3ccc(O)cc3)nc3[nH]ncc23)(OC)C1 [Compound 3-76]	–	A (a value of 3 or above)	–	–	< 0.1	> 100	31.6 to 200
CN(C)C/C=C/C(=O)N1CC(COc2cc(-c3ccc(O)c(F)c3F)cc3[nH]ncc23)C1 [Compound 3-82]	–	B (a value of 2.3 to 3)	–	–	< 0.1	10 to 100	< 31.6
C#CC(=O)N1CC(COc2cc(-c3ccc(O)cc3)cc3[nH]ncc23)C1 [Compound 3-84]	–	A (a value of 3 or above)	–	–	< 0.1	> 100	31.6 to 200
